Activity calls are given as the source filed them. No rule for the calls is given here.
molecular target: glucose-6-phosphate dehydrogenase-6-phosphogluconolactonase (Plasmodium falciparum 3D7); test: PfG6PD inhibitor potency, dose response, biochemical, fluorescence intensity (AID 504765); conditions: Recombinant PfG6PD enzyme, fluorescence intensity (NADPH)

| SMILES | IC50 |
| --- | --- |
| CC(C)Cn1c([N+](=O)[O-])nc2c1c(=O)[nH]c(=O)n2C | 14.3 µM |
| CCN=c1scc(C)n1/N=C/c1ccc(O)c(O)c1O | 6.91 µM |
| CCOC(=O)Cc1cc(=O)n2[nH]c(C(C)(C)C)cc2n1 | 7.04 µM |
| Cc1cc(C)nc(NC(N)=NCCc2ccccc2)n1 | 15 µM |
| CCn1c2ccccc2c2cc(/C=N/n3cn[nH]c3=S)ccc21 | 9.81 µM |
| CCOC(=O)c1ccc(/[N+]([O-])=C/c2ccccc2)cc1 | 2.69 µM |
| Cc1cccc(OCC(=O)NCC(=O)N/N=C/c2ccccc2)c1 | 9.37 µM |
| O=S(=O)(NCc1csc(-c2ccccc2)n1)c1ccc(Cl)s1 | 6.28 µM |
| O=C1CCC[C@@H]2[C@@H](Cc3ccccc3)[C@H](N3CCN(c4ccccc4)CC3)C[C@@H]3CCN1[C@@H]32 | 9.43 µM |
| Cc1cc(C)nc(SSc2nc(C)cc(C)n2)n1 | 3.06 µM |
| Cc1ccc(S(=O)(=O)N(C)C)cc1NC(=O)CSc1nc2ncc(Cl)cc2[nH]1 | 12.1 µM |
| CCOc1ccc(CNc2ccc(N3CCCC3)cc2)cc1 | 2.64 µM |
| C[C@H](CO)N1C[C@H](C)[C@@H](CN(C)C(=O)Nc2ccc(C(F)(F)F)cc2)Oc2c(cccc2N(C)C)C1=O | 5.05 µM |
| COc1ccc(C(=O)c2c(C(F)(F)F)oc3c2C(=O)c2ccccc2C3=O)cc1OC | inactive |
| CCOC(=O)c1c(C)n(-c2ccc(C)cc2)c2c(C(C(C)=O)C(=O)O)c(Br)c(O)c(O)c12 (stereo not drawn) | 2.76 µM |
| C=CCSc1nnc(NC(=O)c2ccc(Cl)nc2)s1 | 4.05 µM |
| Cc1ccc(NC(=O)c2ccc(Cl)c(N3C(=O)C=CC3=O)c2)cc1 | 7.52 µM |
| Cc1ccc(S(=O)(=O)NNc2ccccc2)cc1 | inactive |
| C/C(Cn1nnc([N+](=O)[O-])n1)=N\NC(=O)c1ccc(O)cc1 | 14.6 µM |
| CCn1c(=O)n(CC)c2cc(N3CCCC3)c(NC(=O)c3cccc(C)c3)cc21 | inactive |
| Cc1cc(N=NC(=O)c2ccccc2O)c2ccccc2c1O | inactive |
| c1ccc(OCc2nnc3n2N=C(c2ccccc2)CS3)cc1 | 17.1 µM |
| N#C/C(C(=O)Nc1ccc(Cl)cc1)=C(/S)Nc1ccccc1 | 1.89 µM |

| SMILES | IC50 |
| --- | --- |
| c1cc2c(cc1NC1CCCCCC1)OCO2 | 19.2 µM |
| Cc1ccc(/C=C/C(=O)NC2CCCCCCC2)o1 | 9.66 µM |
| COc1ccc(S(=O)(=O)/N=C2\C=C(Nc3ccc(O)cc3)C(=O)c3ccccc32)cc1 | inactive |
| Cc1ccc(-c2csc(NC(=O)c3ccc(Br)cc3)c2C(=O)O)cc1 | 6.25 µM |
| Cn1c(=O)[nH]c(=O)c2c1nc(SCCN1CCCCC1)n2CCCc1ccccc1 | 14.2 µM |
| C/C(Cn1nnc([N+](=O)[O-])n1)=N\NC(=O)c1ccccc1O | 7.39 µM |
| C[C@H](NC(=O)c1cc2c(cn1)[nH]c1ccccc12)C(=O)O | inactive |
| N#Cc1ccc2sn(-c3ccccc3)c(=O)c2c1 | 3.47 µM |
| Cc1cc(O)c(C(C)C)cc1N=Cc1ccccc1[N+](=O)[O-] | 3.44 µM |
| C=CCc1ccccc1OCC(=O)N/N=C/c1ccccc1OCC | 6.34 µM |
| Cc1cc(C)c[n+](C2=C([O-])c3ccccc3C(=O)/C2=N\S(=O)(=O)c2cccs2)c1 | 15.3 µM |
| ClC(Cl)(c1nnnn1-c1ccccc1)c1nnnn1-c1ccccc1 | 3.8 µM |
| Cc1ccc(S(=O)c2ccc([N+](=O)[O-])c3nonc23)cc1 (stereo not drawn) | 8.19 µM |
| Cc1cccc(C(=O)Nc2nnc(S(=O)(=O)N3CCCCCC3)s2)c1 | 6.58 µM |
| CCOc1ccc(N(CC(=O)N/N=C/c2cc([N+](=O)[O-])ccc2Cl)S(C)(=O)=O)cc1 | 15.1 µM |
| CCCN1CCc2cc(O)cc3c2[C@H]1Cc1ccc(O)c(O)c1-3 | 10.8 µM |
| COC(=O)CCC(=O)OC1(C)C(=O)C2=CN(c3ccccc3)C(c3ccc(OC)cc3)=CC2=C(Br)C1=O (stereo not drawn) | 3.16 µM |
| COC1=C(OC)C(=O)C(Sc2ccc3ccccc3c2)=CC1=O | 0.781 µM |
| O=C(Nc1ccc([N+](=O)[O-])cc1Cl)c1cc(Cl)ccc1O | 13.7 µM |
| CCS(=O)(=O)N1CCN(c2ccc([N+](=O)[O-])c(NC(C)c3ccccc3)c2)CC1 (stereo not drawn) | 14.8 µM |
| O=C1C=CC(=O)N1c1ccc(N2CCCCC2)cc1 | 15.6 µM |
| CCN(CC)c1ccc(NC(=O)c2ccccc2Br)cc1S(=O)(=O)Nc1ccccc1OC | inactive |
| COc1ccc(-n2c(=S)[nH]c3c(sc(=S)n3-c3ccccc3)c2=O)c(OC)c1 | inactive |

| SMILES | IC50 |
| --- | --- |
| CCn1c2ccccc2c2nc3cc(S(=O)(=O)N4CCOCC4)ccc3nc21 | inactive |
| O=C(Nc1sc2c(c1C(=O)O)CCC2)c1ccc(F)cc1 | 7.8 µM |
| CCOC(=O)c1c2ccc(OCC(=O)NN)cc2n2ccccc12 | 15.3 µM |
| CC1(C)Cc2c(sc3nc4n(-c5ccccc5)c(=O)c(CCC(=O)O)nn4c(=O)c23)CO1 | 4.1 µM |
| O=C(Nc1nnc(S(=O)(=O)N2CCCCC2)s1)c1cccc(Br)c1 | 6.37 µM |
| COc1ccccc1NS(=O)(=O)c1cc(NC(=O)c2ccc(Cl)nc2)ccc1N1CCCC1 | inactive |
| C[n+]1c(-c2ccccc2)cc2c(=Cc3ccc([N+](=O)[O-])cc3)c3ccccc3n21 | inactive |
| O=C(CCSCCC(=O)NN=Cc1ccccc1)NN=Cc1ccccc1 | 7.76 µM |
| CN(C)c1ncc(C2=C(Cl)C(=O)C(N3CCCC3)=C(Cl)C2=O)s1 | 3.32 µM |
| Clc1ccc2nc(-c3ccc4c(c3)OCO4)cn2c1 | inactive |
| COc1cc(N)c2ncccc2c1OC | 16.6 µM |
| CCC(C)N(CCNC(=O)c1ccc2c(c1)NC(=O)c1ccccc1S2)C1CCCCC1 (stereo not drawn) | 6.48 µM |
| O=c1c2ccccc2sn1-c1cc(S(=O)(=O)N2CCOCC2)ccc1N1CCCC1 | 1.08 µM |
| [O-]/[N+](=C\c1ccco1)c1ccc(Cl)cc1 | 1.39 µM |
| CC(C)Nc1ccc(Nc2ccccc2)cc1 | 12.1 µM |
| O=C(COc1ccccc1F)OCC(=O)c1ccc([N+](=O)[O-])cc1 | 12.4 µM |
| Clc1ccc2nc(-c3ccc(Br)s3)cn2c1 | 8.89 µM |
| CN(C)c1nc(=NCc2cccs2)ss1 | 11.9 µM |
| COCCn1nnnc1C(c1cc2cc(OC)c(OC)cc2[nH]c1=O)N1CCN(c2ccc(O)cc2)CC1 (stereo not drawn) | inactive |
| O=c1c2ccc(F)cc2sn1-c1ccccc1 | 1.98 µM |
| CC1(C)CN(c2ccccc2)N(C(=O)c2ccc(C#N)cc2)C1=O | 9.37 µM |
| C[C@]12CC[C@@H]3c4ccc(O)c(O)c4CC[C@H]3[C@@H]1CC[C@@H]2O | 4.02 µM |
| C=CCN1C=C2C(=O)C(C)(OC(=O)CCC(=O)OC)C(=O)C(Br)=C2C=C1c1ccc(OC)cc1 (stereo not drawn) | 2.79 µM |

| SMILES | IC50 |
| --- | --- |
| COC1=C(Br)C(=O)c2nc(C)ccc2C1=O | 4.24 µM |
| COc1ccc(-c2cn3cc(C)ccc3n2)cc1Br | 9.91 µM |
| CN(C)c1ccc(Cc2cc3c(O)ccc(O)c3cc(Cc3ccc(N(C)C)cc3)c2=O)cc1 | 2.05 µM |
| COc1ccc(OC)c2c1C(=O)C(Cl)=C(Cl)C2=O | 4.64 µM |
| Cc1ccc(-c2c(C(=O)N/N=C/c3ccsc3)nnn2-c2nonc2N)cc1 | inactive |
| O=C(CNC(=O)c1ccco1)OCC(=O)c1ccc([N+](=O)[O-])cc1 | 19.1 µM |
| O=C1C(c2cc(=O)c3ccccc3[nH]2)=C(O)c2ccccc21 | 8.25 µM |
| O=C(Cn1sc2ccccc2c1=O)Nc1ccc(Br)cc1 | 5.16 µM |
| COc1cc(CN2CCCC(C(=O)c3ccc4c5c(cccc35)CC4)C2)cc(OC)c1O (stereo not drawn) | 3.44 µM |
| CC(=O)Nc1cc(OC(C)=O)c2nonc2c1OC(C)=O | 11.9 µM |
| Cn1c(=O)c2c([nH]c(=S)n2CCCc2ccccc2)n(C)c1=O | 19.5 µM |
| COc1cc(CNc2ccc(N3CCCC3)cc2)cc(Cl)c1OC | 3.64 µM |
| Brc1cc2[nH]cnc2c2ccccc12 | 17.6 µM |
| CCCn1cc(S(=O)(=O)CC(=O)Nc2ccc(OC)cc2OC)c2ccccc21 | 7.87 µM |
| S=C(NN=Cc1ccccn1)N(Cc1ccccn1)Cc1ccccn1 | 4.66 µM |
| NS(=O)(=O)c1ccc(N/N=C/c2ccc(O)c(O)c2O)c([N+](=O)[O-])c1 | 5.7 µM |
| COc1ccc(CCn2c(NN=C3CCCC3)nc3c2c(=O)[nH]c(=O)n3C)cc1 | 9.56 µM |
| COC(=O)CCC(=O)OC1(C)C(=O)C2=CN(C3CC3)C(c3ccc(OC)cc3)=CC2=C(Br)C1=O (stereo not drawn) | 2.46 µM |
| O=C(Nc1ccc(N2CCOCC2)c(Cl)c1)c1ccc(Cl)cc1 | 4.87 µM |
| COc1ccc(N2CSC3=C(C#N)C(c4ccc(OC)c(OC)c4)CC(=O)N3C2)c(OC)c1 (stereo not drawn) | 5.21 µM |
| C=CCc1c(C)[nH]c(=S)c(C#N)c1C | 15.3 µM |
| COc1ccc(C(=O)ON=C2C=C(C)C(=O)C(C)=C2)cc1 | inactive |
| COc1cc(NC(C)CCc2ccccc2)cc(OC)c1OC (stereo not drawn) | 2.02 µM |

| SMILES | IC50 |
| --- | --- |
| Cc1cc(=O)[nH]c(N/N=C/c2c(C)nn(-c3ccccc3)c2Cl)n1 | 8.43 µM |
| Cc1ccc(Nc2cc(C)c(O)c(C)c2)cc1 | 6.16 µM |
| Cc1ccccc1OCC(=O)NCC(=O)OCC(=O)c1ccc([N+](=O)[O-])cc1 | 17.2 µM |
| O=C(Nc1nnc(C2CC2)s1)c1ccc(Cl)nc1 | 4.18 µM |
| CCOC(=O)CSc1nnc(NC(=O)c2cccc([N+](=O)[O-])c2)s1 | 6.49 µM |
| O=C(CNC(=O)c1ccc(Br)cc1)NCC(=O)OCC(=O)c1ccc([N+](=O)[O-])cc1 | 18.1 µM |
| C#CCCc1cscc1/C=[N+](\[O-])c1ccc(C(=O)OCC)cc1 | 2.98 µM |
| O=S(=O)(Nc1c(O)ccc2ccccc12)c1ccccc1 | 4.49 µM |
| Oc1cc(-n2cccn2)c(O)cc1-n1cccn1 | 6.03 µM |
| COc1c(O)c(O)c2oc(-c3ccccc3)cc(=O)c2c1OC | 10.6 µM |
| COc1cc(-c2cc(=O)c3c(O)c(OC)c(OC)c(O)c3o2)ccc1O | 8.95 µM |
| COc1ccccc1N1C(=O)C=C(Sc2nc(C)cc(C)n2)C1=O | 7.18 µM |
| COc1cccc(/C=N/NC(=O)CSc2cccc3cccnc23)c1 | 5.46 µM |
| Nc1c(C(=O)Nc2ccc(F)cc2)sc(=S)n1-c1ccccc1F | 8.31 µM |
| Cn1c(=O)c2[nH]c(-c3ccccc3)c(O)c2n(C)c1=O | 9.54 µM |
| COc1cccc2nc3cc(C)c(C)cc3nc12 | 4.69 µM |
| COC(=O)CCC(=O)Nc1sc(Cc2ccccc2)c(C)c1C(N)=O | inactive |
| COc1cccc(C(=O)Nc2nnc(S(=O)(=O)N(C)Cc3ccccc3)s2)c1 | 4.04 µM |
| COc1ccc(N2C(=O)/C(=C/c3cccs3)NC2=S)cc1 | inactive |
| COCCNC(=S)Nc1ccc(N2CCOCC2)c(S(=O)(=O)Nc2ccc(Cl)cc2)c1 | 19.4 µM |
| COC(=O)[C@H](CCSC)NC(=O)c1cc2c(cn1)[nH]c1ccccc12 | inactive |

— PubChem BioAssay AID504765 (Sanford-Burnham Center for Chemical Genomics, 2011)
